The results in this text go back to article PMC8286840, “Identifying SARS-CoV-2 antiviral compounds by screening for small molecule inhibitors of Nsp3 papain-like protease” (Biochemical Journal, 2021).

For experiment [1], the target named is T1, SARS-CoV-2 PLpro (nsp3 1564–1878) (Severe acute respiratory syndrome coronavirus 2, UniProt P0DTD1). As to the kind of experiment: biochemical. Details: FRET-quenched peptide (Pro3) cleavage by PLpro, 10 min pre-incubation, slope over 20 min, normalised to no-compound control. Particulars: low concentration screen, read-out: % of control remaining.
Experiment [2] concerns the target T1, SARS-CoV-2 PLpro (nsp3 1564–1878). Description: biochemical. Details: FRET-quenched peptide (Pro3) cleavage by PLpro, 10 min pre-incubation, slope over 20 min, normalised to no-compound control. To be noted: high concentration screen, read-out: % of control remaining.

Each structure is given as a SMILES string. Where a name gives a salt, the structure may show the parent alone. Read-outs that look alike come from different tables or passages of the source.

Consider `C[N+](C)(C)CCCCCC[N+](C)(C)C` [Hexamethonium dichloride], for which the remaining activity at 1.25 µM in experiment [1] (Well no.=656) was determined as 90.7%. Moreover, the remaining activity at 3.75 µM in experiment [2] (Well no.=656) came to 89.9%.

Regarding `CC[C@H](c1ccc(O)cc1)[C@@H](CC)c1ccc(O)cc1` [Hexestrol], the remaining activity at 1.25 µM in experiment [1] (Well no.=2182) was 99.9%. The remaining activity at 3.75 µM in experiment [2] (Well no.=2182) is 100%.

As to `C[C@@H]1OC(=O)[C@H]2C[C@H]3CCCC[C@@H]3[C@@H](/C=C/[C@H]3CCC[C@H](C)N3C)[C@@H]12` [Himbacine], the remaining activity at 1.25 µM in experiment [1] (Well no.=3329) is 99%. In addition, the remaining activity at 3.75 µM in experiment [2] (Well no.=3329) turned out to be 98.7%.

With `CC(C)c1cccc(=O)c(O)c1` [Hinokitiol], in experiment [1] (Well no.=3893), the remaining activity at 1.25 µM stood at 105%. The remaining activity at 3.75 µM in experiment [2] (Well no.=3893) amounted to 103%.

With `O=C(O)CNC(=O)c1ccccc1` [Hippuric acid], the remaining activity at 1.25 µM in experiment [1] (Well no.=7309) came to 109%. Moreover, the remaining activity at 3.75 µM in experiment [2] (Well no.=7309) turned out to be 106%.

With `O=c1cc(O)cc(/C=C/c2ccc(O)c(O)c2)o1` [Hispidin], the remaining activity at 1.25 µM in experiment [1] (Well no.=754) is 98.7%. Further, the remaining activity at 3.75 µM in experiment [2] (Well no.=754) came to 96.8%.

On to `O=C1/C(=C/c2ccc(O)cc2)Oc2cc(O)ccc21` [Hispidol], for which, in experiment [1] (Well no.=6966), the remaining activity at 1.25 µM was determined as 95.6%. The remaining activity at 3.75 µM in experiment [2] (Well no.=6966) is 93%.

Take `NCCc1c[nH]cn1` [Histamine (phosphate)]: the remaining activity at 1.25 µM in experiment [1] (Well no.=6717) came to 95.8%. The remaining activity at 3.75 µM in experiment [2] (Well no.=6717) was found to be 91.6%.

With `NCCc1c[nH]cn1` [Histamine dihydrochloride], the remaining activity at 1.25 µM in experiment [1] (Well no.=564) is 103%. In experiment [2] (Well no.=564), the remaining activity at 3.75 µM was determined as 101%.

In the case of `NCCc1c[nH]cn1` [Histamine], the values for the remaining activity at 1.25 µM in experiment [1] (Well no.=6665) and in experiment [1] (Well no.=7059) were 105% and 102%, respectively. In addition, the remaining activity at 3.75 µM worked out at 103% in experiment [2] (Well no.=6665) and 109% in experiment [2] (Well no.=7059).

As to `C[N+]1(C)[C@@H]2CC[C@H]1C[C@@H](OC(=O)C(O)c1ccccc1)C2` (stereo partly shown) [Homatropine (methylbromide)], in experiment [1] (Well no.=7379), the remaining activity at 1.25 µM stood at 94.7%. Besides, in experiment [2] (Well no.=7379), the remaining activity at 3.75 µM came to 96%.

Turning to `C[N+]1(C)[C@@H]2CC[C@H]1C[C@@H](OC(=O)C(O)c1ccccc1)C2` (stereo partly shown) [Homatropine Methylbromide], in experiment [1] (Well no.=5080), the remaining activity at 1.25 µM is 98.2%. Besides, in experiment [2] (Well no.=5080), the remaining activity at 3.75 µM is 101%.

As for `COc1cc(/C=C/C(=O)c2ccc(O)cc2O)ccc1O` [Homobutein], the remaining activity at 1.25 µM in experiment [1] (Well no.=3637) is 99.6%. Further, the remaining activity at 3.75 µM in experiment [2] (Well no.=3637) was determined as 102%.

Regarding `COc1cc([C@@H]2CC(=O)c3c(O)cc(O)cc3O2)ccc1O` [Homoeriodictyol], in experiment [1] (Well no.=3683), the remaining activity at 1.25 µM amounted to 98.7%. The remaining activity at 3.75 µM in experiment [2] (Well no.=3683) was found to be 98.2%.

Turning to `O=c1cc(-c2ccc(O)c(O)c2)oc2cc(O)c([C@@H]3O[C@H](CO)[C@@H](O)[C@H](O)[C@H]3O)c(O)c12` [Homoorientin], in experiment [1] (Well no.=3291), the remaining activity at 1.25 µM is 95.6%. The remaining activity at 3.75 µM in experiment [2] (Well no.=3291) came out at 100%.

In the case of `COc1c(O[C@@H]2O[C@H](CO)[C@@H](O)[C@H](O)[C@H]2O)cc2oc(-c3ccc(O)cc3)cc(=O)c2c1O` [Homoplantaginin], in experiment [1] (Well no.=6446), the remaining activity at 1.25 µM worked out at 94.1%. Besides, the remaining activity at 3.75 µM in experiment [2] (Well no.=6446) came to 95.8%.

Turning to `COc1cc(CC(=O)O)ccc1O` [Homovanillic acid], the remaining activity at 1.25 µM in experiment [1] (Well no.=6831) came to 96.9%. In experiment [2] (Well no.=6831), the remaining activity at 3.75 µM is 97%.

For the compound `C=CCc1ccc(O)c(-c2ccc(O)c(CC=C)c2)c1` [Honokiol], the remaining activity at 1.25 µM in experiment [1] (Well no.=3621) was 97.6%. Besides, the remaining activity at 3.75 µM in experiment [2] (Well no.=3621) stood at 93.8%.

In the case of `CN(C)CCc1ccc(O)cc1` [Hordenine sulfate], the remaining activity at 1.25 µM in experiment [1] (Well no.=3106) is 97.9%. Moreover, in experiment [2] (Well no.=3106), the remaining activity at 3.75 µM is 100%.

As for `NNc1nncc2ccccc12` [Hydralazine hydrochloride], in experiment [1] (Well no.=560), the remaining activity at 1.25 µM turned out to be 95.6%. For the same compound, the remaining activity at 3.75 µM in experiment [2] (Well no.=560) stood at 95.5%.

As to `NS(=O)(=O)c1cc2c(cc1Cl)NCNS2(=O)=O` [Hydrochlorothiazide], the remaining activity at 1.25 µM in experiment [1] (Well no.=658) amounted to 100%. Moreover, the remaining activity at 3.75 µM in experiment [2] (Well no.=658) was 98.6%.

`O=C(O)CCc1ccccc1` [Hydrocinnamic acid]: the remaining activity at 1.25 µM in experiment [1] (Well no.=6731) turned out to be 98.5%. In addition, in experiment [2] (Well no.=6731), the remaining activity at 3.75 µM was 96.7%.
